Converted amounts (≈) assume the structure as drawn.
What was measured:
Test in all cases: MIC, broth-microdilution (CLSI VET01-A4)
Assay type in all cases: cell-based
[1] = tested on: Pasteurella multocida PM 10775 (080130003051, BRD field isolate); details: Pasteurella multocida PM 10775
Procedure, shortened: (§1)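 Test compound is serially diluted twofold across microdilution trays, bacteria are grown, and wells are inspected by eye. The lowest concentration showing no growth is recorded as the MIC.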

[2] = tested on: Pasteurella multocida PM 6391 (ATCC 43137, reference strain); details: Pasteurella multocida PM 6391
Procedure, shortened: as §1

[3] = tested on: Mannheimia haemolytica MH 12587 (1071, BRD field isolate, macrolide-resistance: erm+, E+); details: Mannheimia haemolytica MH 12587, macrolide-resistant
Procedure, shortened: as §1

[4] = tested on: Pasteurella multocida PM 6267 (P 2225 (L386), reference strain, mouse infection strain); details: Pasteurella multocida PM 6267
Procedure, shortened: as §1

[5] = tested on: Mannheimia haemolytica MH 10720 (154, BRD field isolate); details: Mannheimia haemolytica MH 10720
Procedure, shortened: as §1

[6] = tested on: Mannheimia haemolytica MH 6374 (ATCC 33396, reference strain); details: Mannheimia haemolytica MH 6374; read-out: MIC MH 6374
Procedure, shortened: as §1

[7] = tested on: Pasteurella multocida PM 12080 (IV102277-0093, BRD field isolate); details: Pasteurella multocida PM 12080
Procedure, shortened: as §1

[8] = tested on: Mannheimia haemolytica MH 6357 (M7/2, reference strain, cattle infection strain); details: Mannheimia haemolytica MH 6357; read-out: MIC MH 6357
Procedure, shortened: as §1

[9] = tested on: Mannheimia haemolytica MH 13093 (XB0472-6014.1, BRD field isolate)
Procedure, shortened: (§2)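 Broth microdilution per CLSI VET01-A4 using doubling dilution series of compound. MIC taken as the lowest concentration with no turbidity visible to the unaided eye, interpreted per CLSI VET01-S3.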

[10] = tested on: Mannheimia haemolytica MH 13065 (XB0446-6003.9, BRD field isolate)
Procedure, shortened: as §2

Row | SMILES | MIC PM 10775 [1] | MIC PM 6391 [2] | MIC MH 12587 [3] [µM] | MIC PM 6267 [4] | MIC MH 10720 [5] | MIC [6] [µM] | MIC PM 12080 [7] | MIC [8] [µM] | MIC [9] [µM] | MIC [10] [µM] | MIC ([2]; read-out: MIC PM 6391) [µM]
1 | C[C@@H](O)[C@H](NC(=O)c1ccc(C#Cc2ccc(CNCc3ccco3)cc2)cc1)C(=O)NO [C. 259] | <=0.1 μM | <=0.1 μM | 0.4 (≈ 0.179 µg/mL) | <=0.1 μM | <=0.1 μM | 0.2 (≈ 0.0895 µg/mL) | <=0.1 μM | 0.2 (≈ 0.0895 µg/mL) | 0.4 (≈ 0.179 µg/mL) | 0.4 (≈ 0.179 µg/mL) | –
2 | Cc1ccc(CNCc2ccc(C#Cc3ccc(C(=O)NC(C(=O)NO)C(C)(C)O)cc3)cc2)cc1 (centres unmarked) [Compound 579] | <=0.1 μM | – | 1.6 (≈ 0.777 µg/mL) | <=0.1 μM | <=0.1 μM | 0.4 (≈ 0.194 µg/mL) | <=0.1 μM | 0.8 (≈ 0.388 µg/mL) | 0.8 (≈ 0.388 µg/mL) | 0.4 (≈ 0.194 µg/mL) | 0.2 (≈ 0.0971 µg/mL)
3 | C[C@@H](O)[C@H](NC(=O)c1ccc(C#Cc2ccc(CN(C)Cc3ccccc3)s2)cc1)C(=O)NO [Compound 196] | <=0.1 μM | <=0.1 μM | 1.6 (≈ 0.764 µg/mL) | <=0.1 μM | <=0.1 μM | 0.8 (≈ 0.382 µg/mL) | <=0.1 μM | 0.4 (≈ 0.191 µg/mL) | 0.8 (≈ 0.382 µg/mL) | 0.8 (≈ 0.382 µg/mL) | –
4 | C[C@@H](O)[C@H](NC(=O)c1ccc(C#Cc2ccc(CNCc3ccccc3)s2)cc1)C(=O)NO [Compound 195] | <=0.1 μM | <=0.1 μM | 0.8 (≈ 0.371 µg/mL) | <=0.1 μM | <=0.1 μM | 0.2 (≈ 0.0927 µg/mL) | <=0.1 μM | 0.2 (≈ 0.0927 µg/mL) | 0.4 (≈ 0.185 µg/mL) | 0.4 (≈ 0.185 µg/mL) | –
5 | CC(C)(N)C(NC(=O)c1ccc(C#Cc2ccc(CNCc3nccs3)cc2)cc1)C(=O)NO (centres unmarked) [Compound 562] | <=0.1 μM | <=0.1 μM | 1.6 (≈ 0.764 µg/mL) | <=0.1 μM | <=0.1 μM | 0.8 (≈ 0.382 µg/mL) | <=0.1 μM | 0.8 (≈ 0.382 µg/mL) | 0.8 (≈ 0.382 µg/mL) | 0.8 (≈ 0.382 µg/mL) | –

From patent US20230000813A1, “COMPOUND FOR THE TREATMENT OF BOVINE OR SWINE RESPIRATORY DISEASE” (Intervet Inc., priority 2016, published 2023)
